# From article PMC11790914, “Chemogenomics for steroid hormone receptors (NR3)” (Communications Chemistry, 2025)
# Where “and” joins values, the source holds several entries; their conditions need not be identical. Identical values can stand only once.
# How the values were obtained:
# GSK3B = target: T1, GSK3B (Homo sapiens, UniProt P49841); experiment: Liability panel screening by DSF: GSK3B; type: binding; settings: DSF, 20 µM, n=2; read-out: Mean ΔTM GSK3B
# T1 construct: made in house
# ABL1 = target: T2, ABL1 (Homo sapiens, UniProt P00519); experiment: Liability panel screening by DSF: ABL1; type: binding; settings: DSF, 20 µM, n=2; read-out: Mean ΔTM ABL1
# T2 construct: made in house
# Outline: (§1)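 Thermal shift: in-house recombinant protein at 2 µM in 10 mM HEPES pH 7.5 with 500 mM NaCl, SYPRO Orange 1:1000, heated at 3 °C/min to 85 °C in technical duplicates. Tm is the Boltzmann inflection point, reported as ∆Tm in K.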
# AURKA = target: T3, AURKA (Homo sapiens, UniProt O14965); experiment: Liability panel screening by DSF: AURKA; type: binding; settings: DSF, 20 µM, n=2; read-out: Mean ΔTM AURKA
# T3 construct: made in house
# T3 sequence (O14965 1-403): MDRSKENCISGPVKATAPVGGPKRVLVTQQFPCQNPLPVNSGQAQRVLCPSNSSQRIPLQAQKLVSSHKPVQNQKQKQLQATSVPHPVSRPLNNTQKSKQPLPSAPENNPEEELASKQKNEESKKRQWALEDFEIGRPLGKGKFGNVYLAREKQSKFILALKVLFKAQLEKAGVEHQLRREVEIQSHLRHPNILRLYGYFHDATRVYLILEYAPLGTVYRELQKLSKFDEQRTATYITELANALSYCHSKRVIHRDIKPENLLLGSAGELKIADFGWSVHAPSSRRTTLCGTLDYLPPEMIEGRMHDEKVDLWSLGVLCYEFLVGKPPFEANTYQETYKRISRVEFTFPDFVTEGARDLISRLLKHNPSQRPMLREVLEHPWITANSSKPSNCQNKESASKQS
# Outline: as §1
# BRD4 = target: T4, BRD4 (Homo sapiens, UniProt O60885); experiment: Liability panel screening by DSF: BRD4; type: binding; settings: DSF, 20 µM, n=2; read-out: Mean ΔTM BRD4
# T4 construct: This panel comprised ten highly ligandable kinases and bromodomains; made in house
# Outline: as §1
# BRPF1 = target: T5, BRPF1 (Homo sapiens, UniProt P55201); experiment: Liability panel screening by DSF: BRPF1; type: binding; settings: DSF, 20 µM, n=2; read-out: Mean ΔTM BRPF1
# T5 construct: This panel comprised ten highly ligandable kinases and bromodomains; made in house
# T5 sequence (P55201 628-732 limits assumed): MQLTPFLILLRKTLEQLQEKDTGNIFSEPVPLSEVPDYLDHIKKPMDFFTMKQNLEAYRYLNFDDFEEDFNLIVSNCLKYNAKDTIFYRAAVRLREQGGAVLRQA
# Outline: as §1
# CSNK1D = target: T6, CSNK1D (Homo sapiens, UniProt P48730); experiment: Liability panel screening by DSF: CSNK1D; type: binding; settings: DSF, 20 µM, n=2; read-out: Mean ΔTM CSNK1D
# T6 construct: made in house
# Outline: as §1
# HEK293T cells [1] = experiment: Cytotoxicity: apoptosis induction (caspase-3/7 DEVD fluorogenic DNA dye); settings: 1 µM; HEK293T, 24 h; apoptotic cell count normalized to 0.1% DMSO; single replicates
# MAPK1 = target: T7, MAPK1 (Homo sapiens, UniProt P28482); experiment: Liability panel screening by DSF: MAPK1; type: binding; settings: DSF, 20 µM, n=2; read-out: Mean ΔTM MAPK1
# T7 construct: made in house
# Outline: as §1
# TRIM24 = target: T8, TRIM24 (Homo sapiens, UniProt O15164); experiment: Liability panel screening by DSF: TRIM24; type: binding; settings: DSF, 20 µM, n=2; read-out: Mean ΔTM TRIM24
# T8 construct: This panel comprised ten highly ligandable kinases and bromodomains; made in house
# T8 sequence (O15164 899-1004 limits assumed): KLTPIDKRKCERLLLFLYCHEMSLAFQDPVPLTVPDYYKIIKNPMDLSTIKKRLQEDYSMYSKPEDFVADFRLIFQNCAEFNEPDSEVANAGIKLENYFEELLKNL
# Outline: as §1
# Gal4-VP16 = type: cell-based; settings: 1 µM; vs. DMSO ctrl; single replicates n=1-3
# Experimental: Five hours after transfection, the cells were incubated with the NR3 CG compound candidates at the recommended concentrations by changing the medium to Opti-MEM supplemented with penicillin (100 µ/mL) and streptomycin (100 µg/mL) additionally containing 0.1% DMSO and the respective test compound or 0.1% DMSO alone as untreated control. Firefly (reporter) and renilla (control) luminescence were measured after 14–16 h incubation using the Dual-Glo® Luciferase Assay System (Promega, Fitchburg, Wisconsin, USA; #E2980) according to manufacturer’s protocol on a Tecan Spark® 10M multimode microplate reader (Tecan Group AG, Männedorf, Switzerland). To obtain relative light units (RLU) firefly luminescence was divided by renilla luminescence and multiplied by 1000. Fold activation was obtained by dividing the mean RLU of a test sample by the mean RLU of the DMSO (0.1%) control. Experiments were performed in singlets in at least three biologically independent repeats.
# are labeled according to their mode of action (yellow - agonist, grey - antagonist, grey with label D - degrader) and grouped by their
# NR3 subfamily main targets.
# reporter activity at the indicated concentrations expressed as mean fold reporter gene activity (n=3).
# FGFR3 = target: T9, FGFR3 (Homo sapiens, UniProt P22607); experiment: Liability panel screening by DSF: FGFR3; type: binding; settings: DSF, 20 µM, n=2; read-out: Mean ΔTM FGFR3
# T9 construct: made in house
# Outline: as §1
# NR3C1 (GR) = settings: cited from earlier work
# CDK2 = target: T10, CDK2 (Homo sapiens, UniProt P24941); experiment: Liability panel screening by DSF: CDK2; type: binding; settings: DSF, 20 µM, n=2; read-out: Mean ΔTM CDK2
# T10 construct: made in house
# Outline: as §1
# NR3C2 (MR) = settings: cited from earlier work
# HEK293T cells [2] = experiment: Cytotoxicity: metabolic activity (WST-8 / CCK-8 assay); settings: 1 µM; HEK293T, 24 h; WST-8; normalized to 0.1% DMSO; single replicates
# [3] = system: NF-κB activity in HEK293 NF-κB reporter cells; experiment: NF-kB activity assay (GFP reporter, ionomycin/PMA); type: cell-based; settings: for Mean NFκB response: n=3
# Outline: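 Reporter readout: GFP-expressing cells normalized to confluence, imaged every 90 min across 24 h after ionomycin (100 ng/mL)/PMA (10 ng/mL) stimulation of HEK293 cells pre-treated 4 h with compound (0.1% DMSO); triplicate independent experiments.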
# HEK293T cells [4] = experiment: Cytotoxicity: growth-rate (change in confluence over 24 h); settings: 1 µM, normalized to 0.1% DMSO control, single replicates (n=1...)
# [5] = system: ATF6 activity in Hela ATF6 reporter cells; experiment: Endoplasmic reticulum stress assay (ATF6 Renilla luciferase reporter, tunicamycin); type: cell-based; settings: for activity at 1 µM: Homo sapiens, HeLa, single replicates n=1 to n=5, read-out: ER stress [rel. ATF6 activity]
# Outline: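 ER stress was induced by 100 ng/mL tunicamycin added 4 h after compound (0.1% DMSO) to HeLa ATF6 reporter cells. After 18 h more, Renilla luciferase signal was read and expressed relative to DMSO control, n=5 biological replicates.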
# HEK293T cells [6] = experiment: Cytotoxicity: necrosis induction (red fluorescent dye for permeable plasma membranes); type: cell-based; settings: 1 µM, 24 h, necrotic cell count normalized to 0.1% DMSO, single replicates;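 further: compounds applied in DMEM high glucose with 0.1% FCS and 0.1% DMSO, necrotic HEK293T cells counted by red staining of cells whose plasma membranes had become permeable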
# Experimental: Cells were incubated with the test compounds at the indicated concentrations solubilized with 0.1% DMSO for 24 h. […] Necrotic cells were detected with a red fluorescent dye that labels cells with permeable plasma membranes after 24 h treatment and the necrotic cell count was normalized to 0.1% DMSO treated cells (n = 4). e NR family selectivity profiling of NR3 CG compound candidates in uniform Gal4-hybrid reporter gene assays for selected NR representing the NR1, NR2, NR4 and NR5 families.
# HEK293T cells (German Collection of Microorganisms and Cell Culture GmbH, DSMZ; #ACC305) were cultured in DMEM high glucose, supplemented with 10% fetal calf serum (FCS), sodium pyruvate (1 mM), penicillin (100 µ/mL) and streptomycin (100 µg/mL) at 37 °C and 5% (v/v) CO2, and seeded in pre-coated (10 µg/mL collagen G solution (Merck KgaA; #L7213) for 30 min at 37 °C) 96-well plates (2 × 10^5 cells per well). After 24 h, the cells were treated with the respective NR3 CG compound candidate at the recommended concentration, bexarotene (100 µM) or doxorubicin (30 µM) as positive controls in DMEM high glucose supplemented with 0.1% FCS, penicillin (100 µ/mL), streptomycin (100 µg/mL) and 0.1% DMSO, or 0.1% DMSO alone as an untreated control. Each sample was prepared in at least four biologically independent replicates. […] Before drug administration, after the first medium exchange, 24 h after drug administration, and after fluorescence imaging cell confluence was assessed using the Tecan Spark Cyto, to account for changes in cell confluence due to drug administration and cell handling. Compound effects on cell confluence, apoptosis, metabolic activity and necrosis were normalized to the vehicle control of each biological replicate individually.
# NR3C3 (PR) = settings: (lit.); ref Supplementary Table 1; read-out: Potency [nM] EC50, NR3C3 (PR); cited from earlier work
# T7 sequence (P28482 whole entry, species assumed): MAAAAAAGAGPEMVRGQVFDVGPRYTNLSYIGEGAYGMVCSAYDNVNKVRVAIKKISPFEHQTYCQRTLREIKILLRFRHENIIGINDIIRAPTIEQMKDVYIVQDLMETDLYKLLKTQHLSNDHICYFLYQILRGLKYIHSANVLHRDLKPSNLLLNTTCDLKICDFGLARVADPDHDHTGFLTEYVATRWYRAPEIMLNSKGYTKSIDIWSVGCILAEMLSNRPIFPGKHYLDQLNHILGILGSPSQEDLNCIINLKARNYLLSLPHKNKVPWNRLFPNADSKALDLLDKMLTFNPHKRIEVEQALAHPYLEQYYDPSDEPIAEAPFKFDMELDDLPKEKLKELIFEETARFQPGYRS
# T2 sequence (P00519 whole entry, species assumed): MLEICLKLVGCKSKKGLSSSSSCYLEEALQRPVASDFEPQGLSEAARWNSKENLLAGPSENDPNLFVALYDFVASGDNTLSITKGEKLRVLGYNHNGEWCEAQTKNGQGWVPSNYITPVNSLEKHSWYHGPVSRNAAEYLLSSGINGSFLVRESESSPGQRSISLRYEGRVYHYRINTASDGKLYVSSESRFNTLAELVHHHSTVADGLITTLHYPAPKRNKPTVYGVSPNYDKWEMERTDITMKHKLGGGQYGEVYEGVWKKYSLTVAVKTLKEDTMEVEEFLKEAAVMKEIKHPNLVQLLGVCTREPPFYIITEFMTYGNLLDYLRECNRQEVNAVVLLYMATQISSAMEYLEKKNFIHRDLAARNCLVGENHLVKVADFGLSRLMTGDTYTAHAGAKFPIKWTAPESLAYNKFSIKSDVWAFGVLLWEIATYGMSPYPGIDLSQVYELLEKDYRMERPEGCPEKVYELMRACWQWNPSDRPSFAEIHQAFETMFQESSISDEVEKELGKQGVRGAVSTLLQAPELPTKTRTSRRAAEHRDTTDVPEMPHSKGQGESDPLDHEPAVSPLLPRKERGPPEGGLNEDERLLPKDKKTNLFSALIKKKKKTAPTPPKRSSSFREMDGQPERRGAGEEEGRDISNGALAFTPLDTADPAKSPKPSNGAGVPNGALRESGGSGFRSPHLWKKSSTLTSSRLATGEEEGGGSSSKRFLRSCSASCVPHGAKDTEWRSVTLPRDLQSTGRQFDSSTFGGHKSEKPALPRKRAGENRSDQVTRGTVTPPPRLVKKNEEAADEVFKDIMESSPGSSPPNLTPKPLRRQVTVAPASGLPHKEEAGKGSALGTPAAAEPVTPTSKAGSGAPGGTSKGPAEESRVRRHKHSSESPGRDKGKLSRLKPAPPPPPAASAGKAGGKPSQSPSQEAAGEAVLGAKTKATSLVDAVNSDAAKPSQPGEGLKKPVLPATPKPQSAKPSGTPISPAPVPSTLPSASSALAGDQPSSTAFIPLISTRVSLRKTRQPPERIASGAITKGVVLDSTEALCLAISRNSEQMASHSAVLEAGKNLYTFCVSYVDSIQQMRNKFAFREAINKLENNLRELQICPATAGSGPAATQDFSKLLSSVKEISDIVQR
# T6 sequence (P48730 whole entry, species assumed): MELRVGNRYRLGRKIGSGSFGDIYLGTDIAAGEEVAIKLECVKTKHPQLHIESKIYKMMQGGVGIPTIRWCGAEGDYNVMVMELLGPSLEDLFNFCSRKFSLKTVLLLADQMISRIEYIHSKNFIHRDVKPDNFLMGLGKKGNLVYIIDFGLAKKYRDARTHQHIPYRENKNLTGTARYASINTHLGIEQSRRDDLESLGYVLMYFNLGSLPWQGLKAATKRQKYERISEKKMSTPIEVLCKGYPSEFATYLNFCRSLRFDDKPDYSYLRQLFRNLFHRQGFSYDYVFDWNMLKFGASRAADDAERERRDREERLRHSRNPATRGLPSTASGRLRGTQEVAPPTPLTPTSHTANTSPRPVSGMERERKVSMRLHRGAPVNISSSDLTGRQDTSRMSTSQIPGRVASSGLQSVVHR
# T1 sequence (P49841 whole entry, species assumed): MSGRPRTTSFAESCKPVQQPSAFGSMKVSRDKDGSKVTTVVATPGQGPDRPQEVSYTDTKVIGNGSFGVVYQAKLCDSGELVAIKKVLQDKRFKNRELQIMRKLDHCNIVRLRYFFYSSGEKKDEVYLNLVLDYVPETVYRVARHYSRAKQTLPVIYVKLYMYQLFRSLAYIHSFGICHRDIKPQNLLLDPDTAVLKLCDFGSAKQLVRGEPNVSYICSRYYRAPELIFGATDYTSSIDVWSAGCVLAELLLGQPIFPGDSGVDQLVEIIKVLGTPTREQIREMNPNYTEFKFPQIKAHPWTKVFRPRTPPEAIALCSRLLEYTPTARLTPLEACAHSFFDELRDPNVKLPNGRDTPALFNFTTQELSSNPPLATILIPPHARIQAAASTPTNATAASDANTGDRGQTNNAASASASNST
# T9 sequence (P22607 23-806, species assumed): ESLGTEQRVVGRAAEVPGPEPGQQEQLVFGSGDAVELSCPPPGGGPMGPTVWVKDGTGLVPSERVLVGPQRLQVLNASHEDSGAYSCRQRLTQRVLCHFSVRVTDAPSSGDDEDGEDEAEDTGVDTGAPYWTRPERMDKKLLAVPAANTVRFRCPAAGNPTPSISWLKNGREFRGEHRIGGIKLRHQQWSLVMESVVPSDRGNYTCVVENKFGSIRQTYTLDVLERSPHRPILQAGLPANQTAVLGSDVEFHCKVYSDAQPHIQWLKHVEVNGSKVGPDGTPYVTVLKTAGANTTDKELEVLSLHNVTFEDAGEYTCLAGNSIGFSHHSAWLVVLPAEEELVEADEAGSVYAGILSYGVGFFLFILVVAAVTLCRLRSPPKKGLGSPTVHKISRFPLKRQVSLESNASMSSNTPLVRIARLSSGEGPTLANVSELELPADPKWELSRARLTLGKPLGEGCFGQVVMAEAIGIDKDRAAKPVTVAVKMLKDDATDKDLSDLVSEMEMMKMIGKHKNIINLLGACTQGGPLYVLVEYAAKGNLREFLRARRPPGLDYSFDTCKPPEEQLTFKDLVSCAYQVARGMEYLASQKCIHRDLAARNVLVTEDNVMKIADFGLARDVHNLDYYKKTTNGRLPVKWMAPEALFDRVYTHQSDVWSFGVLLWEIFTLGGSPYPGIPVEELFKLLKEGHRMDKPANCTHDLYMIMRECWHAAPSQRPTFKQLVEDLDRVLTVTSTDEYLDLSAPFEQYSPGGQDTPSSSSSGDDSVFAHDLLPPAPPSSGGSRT
Structure (SMILES),ΔTm at 20 µM (GSK3B) [°C],ΔTm at 20 µM (ABL1) [°C],ΔTm at 20 µM (AURKA) [°C],ΔTm at 20 µM (BRD4) [°C],ΔTm at 20 µM (BRPF1) [°C],ΔTm at 20 µM (CSNK1D) [°C],Apoptosis induction [AI] (HEK293T cells [1]),ΔTm at 20 µM (MAPK1) [°C],ΔTm at 20 µM (TRIM24) [°C],ΔTm at 20 µM (CDK2) [°C],"Mean NFκB response ([3]; 1 µM, 1,5 h)","Mean NFκB response ([3]; 1 µM, 4,5 h)","Mean NFκB response ([3]; 1 µM, 7,5 h)","Mean NFκB response ([3]; 1 µM, 10,5 h)","Mean NFκB response ([3]; 1 µM, 13,5 h)","Mean NFκB response ([3]; 1 µM, 16,6 h)","Mean NFκB response ([3]; 1 µM, 19,5 h)","Mean NFκB response ([3]; 1 µM, 22,5 h)","Mean NFκB response ([3]; 1 µM, 3 h)","Mean NFκB response ([3]; 1 µM, 6 h)",further results
CC(=O)OCC(=O)[C@@]1(O)CC[C@H]2[C@@H]3CCC4=CC(=O)CC[C@]4(C)[C@@]3(F)[C@@H](O)C[C@@]21C [Fludrocortisone acetate],-0.61,-0.12,0.09,-0.79,-0.43,-0.08,1.14 and 1.39 and 1.56 and 1.37 and 1.13 and 1.61,0.55,-0.96,-0.73,3820.94 GFP+-cells/confluence ∙ 1000,4296.72 GFP+-cells/confluence ∙ 1000,6095.26 GFP+-cells/confluence ∙ 1000,8052.10 GFP+-cells/confluence ∙ 1000,9784.85 GFP+-cells/confluence ∙ 1000,11376.50 GFP+-cells/confluence ∙ 1000,12926.78 GFP+-cells/confluence ∙ 1000,13912.05 GFP+-cells/confluence ∙ 1000,3762.70 GFP+-cells/confluence ∙ 1000,5124.39 GFP+-cells/confluence ∙ 1000,"VP16 control [fold reporter gene activity] (Gal4-VP16): 0.96 fold reporter gene activity and 0.81 fold reporter gene activity and 0.89 fold reporter gene activity; ΔTm at 20 µM (FGFR3): -0.06 °C; EC50 (NR3C1 (GR); (lit.), ref Supplementary Table 1, read-out: Potency [nM] EC50, NR3C1 (GR)): 4 nM; rel. activity from literature, NR3C1 (GR): fold activation (NR3C1 (GR)): ~ 1000 fold; rel. activity from literature, NR3C2 (MR): fold activation (NR3C2 (MR)): ~ 41 fold; Metabolic activity [MA] (HEK293T cells [2]): 1.08 (2×) and 0.93 and 1.06 and 1.01 and 0.96 and 1.04 and 1.00; Mean NFκB response ([3]; 1 µM, 9 h): 7003.20 GFP+-cells/confluence ∙ 1000; Mean NFκB response ([3]; 1 µM, 12 h): 8806.82 GFP+-cells/confluence ∙ 1000; Mean NFκB response ([3]; 1 µM, 15 h): 10595.86 GFP+-cells/confluence ∙ 1000; Mean NFκB response ([3]; 1 µM, 18 h): 12286.70 GFP+-cells/confluence ∙ 1000; Mean NFκB response ([3]; 1 µM, 21 h): 13535.05 GFP+-cells/confluence ∙ 1000; Mean NFκB response ([3]; 1 µM, 24 h): 14315.67 GFP+-cells/confluence ∙ 1000; NF-κB activity (inflammatory response to ionomycin/PMA) ([3]; HEK293 NF-κB reporter cells, compounds at recommended concentrations, imaged over 24 h, n = 3): consistently delayed and strongly diminished NF-κB activity; Growth rate [GR] (HEK293T cells [4]): 1.03 and 5.01 and 1.16 and 1.40 and 1.04 and 0.96 and 0.90 and 1.39 and 3.00 and 9.23; ATF6 activity (tunicamycin-induced endoplasmic reticulum stress) ([5]; Hela ATF6 reporter cells, tunicamycin 100 ng/mL, 18 h, compounds at recommended concentrations, n = 5): Consistently weaker ATF6 activity; activity at 1 µM [5]: 82%; Necrosis induction [NI] (HEK293T cells [6]): 1.13 and 1.14 and 1.54 and 1.19"
N#Cc1ccc(N2N=C3c4ccc(C(=O)O)cc4CC[C@@H]3[C@@H]2C2CCCC2)cc1Cl [PF-03882845],0,-2.47,0.42,0,-8.37,-4.9,0.00 (4×) and 0.46 and 0.70,-9.49,1.43,-2.04,2659.67 GFP+-cells/confluence ∙ 1000,3143.33 GFP+-cells/confluence ∙ 1000,6360.00 GFP+-cells/confluence ∙ 1000,17053.33 GFP+-cells/confluence ∙ 1000,25306.67 GFP+-cells/confluence ∙ 1000,31613.33 GFP+-cells/confluence ∙ 1000,36320.00 GFP+-cells/confluence ∙ 1000,39133.33 GFP+-cells/confluence ∙ 1000,2686.67 GFP+-cells/confluence ∙ 1000,3810.00 GFP+-cells/confluence ∙ 1000,"EC50 (NR3C3 (PR)): 416 nM; EC50 (NR3C2 (MR); (lit.), ref Supplementary Table 1, read-out: Potency [nM] EC50, NR3C2 (MR)): 9 nM; Mean NFκB response ([3]; 1 µM, 9 h): 11590.00 GFP+-cells/confluence ∙ 1000; Mean NFκB response ([3]; 1 µM, 12 h): 21213.33 GFP+-cells/confluence ∙ 1000; Mean NFκB response ([3]; 1 µM, 15 h): 28830.00 GFP+-cells/confluence ∙ 1000; Mean NFκB response ([3]; 1 µM, 18 h): 34136.67 GFP+-cells/confluence ∙ 1000; Mean NFκB response ([3]; 1 µM, 21 h): 37763.33 GFP+-cells/confluence ∙ 1000; Mean NFκB response ([3]; 1 µM, 24 h): 40546.67 GFP+-cells/confluence ∙ 1000; activity at 1 µM [5]: 94%; Necrosis induction [NI] (HEK293T cells [6]): 1.10 and 0.88 and 0.95 and 1.46"
